According to ChEMBL document CHEMBL4825757, “Optimization of 4,6-Disubstituted Pyrido[3,2-d]pyrimidines as Dual MNK/PIM Inhibitors to Inhibit Leukemia Cell Growth” (J Med Chem, 2021):

Columns and labels:
[1] = target: Serine/threonine-protein kinase pim-3 (Homo sapiens, UniProt Q86V86); experiment: Inhibition of wild-type human partial length PIM3 (G16 to A317 residues) expressed in bacterial expression system at 1 uM by Kinomescan method relative to control
[2] = target: Serine/threonine-protein kinase pim-2 (Homo sapiens, UniProt Q9P1W9); experiment: Inhibition of recombinant human Pim2 (2 to end residues) using RSRHSSYPAGT as substrate incubated for 40 mins in presence of [gamma33P]ATP by scintillation counting based radiometry assay
K562 = experiment: Antiproliferative activity against human K562 cells assessed as reduction of cell viability incubated for 72 hrs by trypan blue staining based cell counting analysis; type: functional
[3] = target: Serine/threonine-protein kinase PIM (Homo sapiens) (UniProt P11309+Q9P1W9+Q86V86); experiment: Inhibition of PIM in human K562 cells assessed as reduction in phosphorylated 4EBP1 at 1 to 2 uM incubated for 24 hrs by western blot analysis; type: cell-based; settings: dose 1-2 µM
Serine/threonine-protein kinase PIM (Homo sapiens), sequence (P11309 whole entry, looked up): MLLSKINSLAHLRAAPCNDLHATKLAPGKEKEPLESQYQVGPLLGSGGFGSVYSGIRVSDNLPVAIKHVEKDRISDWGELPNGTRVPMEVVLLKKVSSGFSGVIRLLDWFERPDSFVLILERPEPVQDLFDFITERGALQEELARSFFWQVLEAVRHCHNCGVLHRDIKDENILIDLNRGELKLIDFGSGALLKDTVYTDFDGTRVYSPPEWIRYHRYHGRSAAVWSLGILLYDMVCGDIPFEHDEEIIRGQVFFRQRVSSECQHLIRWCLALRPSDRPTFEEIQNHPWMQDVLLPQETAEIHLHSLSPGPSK
Serine/threonine-protein kinase PIM (Homo sapiens), sequence (Q9P1W9 whole entry, looked up): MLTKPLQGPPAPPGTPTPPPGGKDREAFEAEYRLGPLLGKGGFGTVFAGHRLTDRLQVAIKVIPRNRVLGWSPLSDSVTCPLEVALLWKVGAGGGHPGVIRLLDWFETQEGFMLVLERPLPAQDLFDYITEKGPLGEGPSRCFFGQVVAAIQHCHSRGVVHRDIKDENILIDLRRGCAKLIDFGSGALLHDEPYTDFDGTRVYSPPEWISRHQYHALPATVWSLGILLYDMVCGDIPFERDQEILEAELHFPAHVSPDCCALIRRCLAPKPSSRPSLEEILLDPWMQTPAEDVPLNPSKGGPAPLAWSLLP

Serine/threonine-protein kinase pim-2, sequence (Q9P1W9 whole entry): as the sequence (Q9P1W9 whole entry, looked up) above

Compound: CC(C)Oc1cc(F)ccc1Nc1ncnc2ccc(-c3ccc(C(=O)N4CCNCC4)cc3)nc12
- inhibition [1]: 90%
- IC50 [2]: 0.232 µM
- GI50 (K562): 2.19 µM
- inhibition [3]: Dose-Dependent Effect
